# Data: PubChem BioAssay (NCI)
# Values joined by “and” are separate entries in the source; they are usually repeats but may differ in a detail not shown here. Equal values may be shown once.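 Five concentrations, 48 hours, 96-well plates. Here, GI50 denotes the concentration required for 50% inhibition of growth. TGI: concentration producing complete growth inhibition.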
# Tests used:
# Experiment in all cases: NCI tumour cell line growth inhibition, 48 h
# SK-MEL-2 melanoma = system: SK-MEL-2 melanoma
# SN12C renal = system: SN12C renal
# NCI/ADR-RES ovarian = system: NCI/ADR-RES ovarian
# U251 CNS = system: U251 CNS
# HCT-116 colon = system: HCT-116 colon
# CCRF-CEM leukemia = system: CCRF-CEM leukemia
# RPMI-8226 leukemia = system: RPMI-8226 leukemia
# ACHN renal = system: ACHN renal
# SNB-19 CNS = system: SNB-19 CNS
# UACC-62 melanoma = system: UACC-62 melanoma
# BT-549 breast = system: BT-549 breast
# HOP-92 NSCLC = system: HOP-92 NSCLC
# SF-295 CNS = system: SF-295 CNS
# OVCAR-8 ovarian = system: OVCAR-8 ovarian
# HCT-15 colon = system: HCT-15 colon
# A549 NSCLC = system: A549 NSCLC
# OVCAR-4 ovarian = system: OVCAR-4 ovarian
# 786-0 renal = system: 786-0 renal
# SR leukemia = system: SR leukemia
# HS 578T breast = system: HS 578T breast
# SF-268 CNS = system: SF-268 CNS
# NCI-H226 lung = system: NCI-H226 lung
# KM12 colon = system: KM12 colon
# EKVX NSCLC = system: EKVX NSCLC
# LOX IMVI melanoma = system: LOX IMVI melanoma
# PC-3 prostate = system: PC-3 prostate
# OVCAR-5 ovarian = system: OVCAR-5 ovarian
# TK-10 renal = system: TK-10 renal
# SK-OV-3 ovarian = system: SK-OV-3 ovarian
# NCI-H23 lung = system: NCI-H23 lung
# RXF 393 renal = system: RXF 393 renal
# MDA-MB-231 breast = system: MDA-MB-231 breast
# T-47D breast = system: T-47D breast
# M14 melanoma = system: M14 melanoma
# SK-MEL-28 melanoma = system: SK-MEL-28 melanoma
# SW-620 colon = system: SW-620 colon
# HT29 colon = system: HT29 colon
# NCI-H522 lung = system: NCI-H522 lung
# IGROV1 ovarian = system: IGROV1 ovarian
# COLO 205 colon = system: COLO 205 colon
# UO-31 renal = system: UO-31 renal
# HL-60(TB) leukemia = system: HL-60(TB) leukemia
# SNB-75 CNS = system: SNB-75 CNS
# HOP-62 NSCLC = system: HOP-62 NSCLC
# MALME-3M melanoma = system: MALME-3M melanoma
# HCC-2998 colon = system: HCC-2998 colon
# MDA-MB-435 = system: MDA-MB-435
# NCI-H460 lung = system: NCI-H460 lung
# DU-145 prostate = system: DU-145 prostate
# SK-MEL-5 melanoma = system: SK-MEL-5 melanoma
# MOLT-4 leukemia = system: MOLT-4 leukemia
# K-562 leukemia = system: K-562 leukemia
# MCF7 breast = system: MCF7 breast
# SF-539 CNS = system: SF-539 CNS
# CAKI-1 renal = system: CAKI-1 renal
# UACC-257 melanoma = system: UACC-257 melanoma
smiles,measurement,setting,value
ClC(Cl)c1nc(-c2ccco2)n2nc(-c3ccccc3)cc2n1,GI50,SK-MEL-2 melanoma,> 100 µM
same,TGI,SK-MEL-2 melanoma,> 100 µM
same,GI50,SN12C renal,> 100 µM
same,TGI,SN12C renal,> 100 µM
same,GI50,NCI/ADR-RES ovarian,0.801 µM
same,TGI,NCI/ADR-RES ovarian,> 100 µM
same,GI50,U251 CNS,0.343 µM
same,TGI,U251 CNS,2.33 µM
same,GI50,HCT-116 colon,0.639 µM
same,TGI,HCT-116 colon,> 39.3 µM
same,GI50,CCRF-CEM leukemia,> 100 µM
same,TGI,CCRF-CEM leukemia,> 100 µM
same,GI50,RPMI-8226 leukemia,0.54 µM
same,TGI,RPMI-8226 leukemia,> 22.6 µM
same,GI50,ACHN renal,0.365 µM
same,TGI,ACHN renal,2.03 µM
same,GI50,SNB-19 CNS,0.998 µM
same,TGI,SNB-19 CNS,> 100 µM
same,GI50,UACC-62 melanoma,> 100 µM
same,TGI,UACC-62 melanoma,> 100 µM
same,GI50,BT-549 breast,> 100 µM
same,TGI,BT-549 breast,> 100 µM
same,GI50,HOP-92 NSCLC,0.535 µM
same,TGI,HOP-92 NSCLC,3.64 µM
same,GI50,SF-295 CNS,1.66 µM
same,TGI,SF-295 CNS,6.13 µM
same,GI50,OVCAR-8 ovarian,1.62 µM
same,TGI,OVCAR-8 ovarian,> 100 µM
same,GI50,HCT-15 colon,0.617 µM
same,TGI,HCT-15 colon,> 100 µM
same,GI50,A549 NSCLC,1.56 µM
same,TGI,A549 NSCLC,6.16 µM
same,GI50,OVCAR-4 ovarian,5.45 µM
same,TGI,OVCAR-4 ovarian,> 100 µM
same,GI50,786-0 renal,> 23.5 µM
same,TGI,786-0 renal,> 100 µM
same,GI50,SR leukemia,> 60.2 µM
same,TGI,SR leukemia,> 100 µM
same,GI50,HS 578T breast,2.17 µM
same,TGI,HS 578T breast,7.46 µM
same,GI50,SF-268 CNS,1.98 µM
same,TGI,SF-268 CNS,> 100 µM
same,GI50,NCI-H226 lung,> 100 µM
same,TGI,NCI-H226 lung,> 100 µM
same,GI50,KM12 colon,0.352 µM
same,TGI,KM12 colon,1.71 µM
same,GI50,EKVX NSCLC,1.56 µM
same,TGI,EKVX NSCLC,5.18 µM
same,GI50,LOX IMVI melanoma,> 100 µM
same,TGI,LOX IMVI melanoma,> 100 µM
same,GI50,PC-3 prostate,1.67 µM
same,TGI,PC-3 prostate,16.2 µM
same,GI50,OVCAR-5 ovarian,2.02 µM
same,TGI,OVCAR-5 ovarian,> 100 µM
same,GI50,TK-10 renal,4.96 µM
same,TGI,TK-10 renal,> 100 µM
same,GI50,SK-OV-3 ovarian,6.76 µM
same,TGI,SK-OV-3 ovarian,> 100 µM
same,GI50,NCI-H23 lung,9.81 µM
same,TGI,NCI-H23 lung,> 100 µM
same,GI50,RXF 393 renal,0.528 µM
same,TGI,RXF 393 renal,76.4 µM
same,GI50,MDA-MB-231 breast,0.791 µM
same,TGI,MDA-MB-231 breast,5.02 µM
same,GI50,T-47D breast,1.47 µM
same,TGI,T-47D breast,> 100 µM
same,GI50,M14 melanoma,> 100 µM
same,TGI,M14 melanoma,> 100 µM
same,GI50,SK-MEL-28 melanoma,3.76 µM
same,TGI,SK-MEL-28 melanoma,> 100 µM
same,GI50,SW-620 colon,0.445 µM
same,TGI,SW-620 colon,> 82.5 µM
same,GI50,HT29 colon,0.338 µM
same,TGI,HT29 colon,2.16 µM
same,GI50,NCI-H522 lung,> 100 µM
same,TGI,NCI-H522 lung,> 100 µM
same,GI50,IGROV1 ovarian,> 63.1 µM
same,TGI,IGROV1 ovarian,> 100 µM
same,GI50,COLO 205 colon,1.15 µM
same,TGI,COLO 205 colon,3.58 µM
same,GI50,UO-31 renal,1.61 µM
same,TGI,UO-31 renal,> 23.9 µM
same,GI50,HL-60(TB) leukemia,0.304 µM
same,TGI,HL-60(TB) leukemia,1.69 µM
same,GI50,SNB-75 CNS,0.219 µM
same,TGI,SNB-75 CNS,3.07 µM
same,GI50,HOP-62 NSCLC,0.679 µM
same,TGI,HOP-62 NSCLC,4.5 µM
same,GI50,MALME-3M melanoma,> 100 µM
same,TGI,MALME-3M melanoma,> 100 µM
same,GI50,HCC-2998 colon,0.553 µM
same,TGI,HCC-2998 colon,1.85 µM
same,GI50,MDA-MB-435,2.64 µM
same,TGI,MDA-MB-435,> 100 µM
same,GI50,NCI-H460 lung,0.265 µM
same,TGI,NCI-H460 lung,0.844 µM
same,GI50,DU-145 prostate,0.355 µM
same,TGI,DU-145 prostate,1.41 µM
same,GI50,SK-MEL-5 melanoma,> 100 µM
same,TGI,SK-MEL-5 melanoma,> 100 µM
same,GI50,MOLT-4 leukemia,> 100 µM
same,TGI,MOLT-4 leukemia,> 100 µM
same,GI50,K-562 leukemia,> 39.1 µM
same,TGI,K-562 leukemia,> 100 µM
COc1cc(C)c(-c2ccc(OC)c(=O)cc2C)c(OC)c1OC,TGI,SN12C renal,> 100 µM
same,GI50,NCI/ADR-RES ovarian,> 100 µM
same,TGI,NCI/ADR-RES ovarian,> 100 µM
same,TGI,U251 CNS,> 100 µM
same,TGI,HCT-116 colon,> 100 µM
same,TGI,CCRF-CEM leukemia,> 100 µM
same,TGI,RPMI-8226 leukemia,> 100 µM
same,TGI,ACHN renal,> 100 µM
same,TGI,SNB-19 CNS,> 100 µM
same,TGI,UACC-62 melanoma,> 100 µM
same,GI50,HOP-92 NSCLC,3.53 µM and 22.4 µM
same,TGI,HOP-92 NSCLC,> 100 µM
same,TGI,SF-295 CNS,> 100 µM
same,TGI,MCF7 breast,> 100 µM
same,TGI,OVCAR-8 ovarian,> 100 µM
same,TGI,HCT-15 colon,> 100 µM
same,TGI,A549 NSCLC,> 100 µM
same,GI50,OVCAR-4 ovarian,44.2 µM and > 100 µM
same,TGI,OVCAR-4 ovarian,> 100 µM
same,TGI,786-0 renal,> 100 µM
same,TGI,SR leukemia,> 100 µM
same,GI50,HS 578T breast,> 100 µM
same,TGI,HS 578T breast,> 100 µM
same,TGI,SF-268 CNS,> 100 µM
same,TGI,NCI-H226 lung,> 100 µM
same,TGI,KM12 colon,> 100 µM
same,TGI,EKVX NSCLC,> 100 µM
same,TGI,SF-539 CNS,> 100 µM
same,TGI,LOX IMVI melanoma,> 100 µM
same,TGI,PC-3 prostate,> 100 µM
same,TGI,OVCAR-5 ovarian,> 100 µM
same,GI50,TK-10 renal,66.3 µM and > 100 µM
same,TGI,TK-10 renal,> 100 µM
same,TGI,SK-OV-3 ovarian,> 100 µM
same,TGI,NCI-H23 lung,> 100 µM
same,TGI,RXF 393 renal,> 100 µM
same,TGI,MDA-MB-231 breast,> 100 µM
same,TGI,T-47D breast,> 100 µM
same,TGI,M14 melanoma,> 100 µM
same,GI50,SK-MEL-28 melanoma,> 100 µM
same,TGI,SK-MEL-28 melanoma,> 100 µM
same,TGI,SW-620 colon,> 100 µM
same,TGI,CAKI-1 renal,> 100 µM
same,TGI,IGROV1 ovarian,> 100 µM
same,TGI,UO-31 renal,> 100 µM
same,GI50,SNB-75 CNS,> 100 µM
same,TGI,SNB-75 CNS,> 100 µM
same,TGI,HOP-62 NSCLC,> 100 µM
same,GI50,MALME-3M melanoma,> 100 µM
same,TGI,MALME-3M melanoma,> 100 µM
same,TGI,HCC-2998 colon,> 100 µM
same,TGI,NCI-H460 lung,> 100 µM
same,TGI,DU-145 prostate,> 100 µM
same,TGI,SK-MEL-5 melanoma,38.3 µM and > 100 µM
same,TGI,UACC-257 melanoma,> 100 µM
same,TGI,MOLT-4 leukemia,> 100 µM
same,TGI,K-562 leukemia,> 100 µM
